In patent EP0732934B1, “LONG-ACTING INJECTION SUSPENSIONS OF AN LHRH ANALOGUE AND A PROCESS FOR THEIR PREPARATION” (Zentaris GmbH, priority 1993, dated 2005):
Where a name gives a salt, the structure may show the parent alone.

Assays:
[1] = test system: testosterone plasma levels; assay: Duration of action in the animal: testosterone suppression after subcutaneous application; format: in vivo; conditions: male rats
Protocol: Suspensions of the precipitates were applied subcutaneously to male rats in the dose 0.5 mg cetrorelix/kg body weight and determined after application as a measure of the effect of the peptide on testosterone plasma levels. The effect of the cetrorelix consists in reduction of the testosterone level. As a reference an injection suspension was tested as well, that prepared according to DE 4023134 A1 and which contained the peptide embonate in poly(lactic acid, glycolic acid) copolymers. The duration of action of a non-sustained release dosage form of cetrorelix was determined via examination of the aqueous solution of cetrorelix acetate.

[2] = compared to its embonic acid salt, subcutaneous injection in mice; cited from earlier work
[3] = in vivo, po; cited from earlier work

Compound: Ac-DNal-DpCl-Phe-DPal-Ser-Tyr-DCit-Leu-Arg-Pro-D-Ala-NH2 [cetrorelix acetate]
- effect of testosterone suppression achieved after the application ([1]; 0.5 mg cetrorelix/kg body weight subcutaneously): 6 h
- duration of testosterone suppression under 1 ng/ml ([1]; 0.5 mg cetrorelix/kg subcutaneously, values for subgroups of animals (acetate: two animals, three further animals; embonate: one animal)): 24 h and up to 48 h

Compound: CCc1nc(N)nc(N)c1-c1ccc(Cl)cc1 [pyrimethamine]
- pharmacokinetic behaviour, plasma level course and AUC [2]: no difference

Compound: CN(C)CCCN1c2ccccc2CCc2ccccc21 [imipramine HCl]
- difference to imipramine embonate [3]: no difference
